Measured values taken from BindingDB's records for doi:10.1016/j.bmcl.2006.05.053 (Institute For Molecular Studies, 2006).

Molecular target: Mu-type opioid receptor (Rattus norvegicus, UniProt P33535)
Assay: Displacement of [3H]DAMGO from mu opioid receptor in rat brain homogenate

Chain of Mu-type opioid receptor (P33535 whole entry): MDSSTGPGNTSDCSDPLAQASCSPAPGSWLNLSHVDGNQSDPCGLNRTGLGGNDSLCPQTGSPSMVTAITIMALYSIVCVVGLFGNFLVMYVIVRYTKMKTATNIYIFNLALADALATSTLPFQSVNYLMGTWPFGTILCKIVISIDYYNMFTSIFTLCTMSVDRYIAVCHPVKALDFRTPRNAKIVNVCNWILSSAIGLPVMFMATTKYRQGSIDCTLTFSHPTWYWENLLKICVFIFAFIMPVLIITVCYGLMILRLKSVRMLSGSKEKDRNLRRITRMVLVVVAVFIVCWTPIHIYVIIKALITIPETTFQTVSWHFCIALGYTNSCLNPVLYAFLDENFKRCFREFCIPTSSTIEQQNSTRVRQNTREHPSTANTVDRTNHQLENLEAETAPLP

With `CN[C@@H](Cc1ccc(O)cc1)CN(C)[C@H](CNCc1ccccc1)Cc1ccc(O)cc1` [4-[(2S)-3-{[(2S)-1-(benzylamino)-3-(4-hydroxyphenyl)propan-2-yl](methyl)amino}-2-(methylamino)propyl]phenol] the IC50 was 2 nM.
